Data: US20040106545A1, “Compounds and methods for modulating cell adhesion” (priority 1996, published 2004)
Entries after “also recorded” stand apart in the source; their conditions may differ. Positions of bridges follow the written chain, without caps; N, C: chain ends. Residues, ends and D or L forms follow the SMILES beside them.

How the values were obtained:
[1] = test system: Madin Darby canine kidney (MDCK) cells; type: cell-based; conditions: for EC50, decrease of electrical resistance across MDCK cell monolayer: 18 hours
Outline: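 MDCK monolayers, grown in DMEM with 5% FCS from 300,000 cells per insert, exposed to modulating agent in medium (e.g., 0.5 mg/ml final for 24 hours). Transepithelial electrical resistance measured as an index of tight junction formation.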

[2] = Cytotoxicity, MTT assay, HUVEC; type: cell-based; conditions: human, HUVEC (human umbilical vein endothelial cells), read-out: HUVEC Cytotox (IC50)
Method: (§1) N—Ac-CHAVC-NH2 (SEQ ID NO:10) and the control peptide N—Ac-CHGVC-NH2 (SEQ ID NO:11) were evaluated for possible cytotoxic effects on human microvascular endothelial (HMVEC; Clonetics), human umbilical vein endothelial (HUVEC; ATCC #CRL-1730), IAFp2 (human fibroblast cell line; Institute Armand-Frapier, Montreal, Quebec), WI-38 (human fibroblast cell line; ATCC #CCL-75), MDA-MB231 (human breast cancer cell line; ATCC #HTB-26), and PC-3 (human prostate cancer cell line; ATCC #CRL-1435) cells utilizing the MTT assay (Plumb et al., Cancer Res. 49:4435-4440, 1989). Neither of the peptides was cytotoxic at concentrations up to and including 100 μM. Similarly, neither of the peptides was capable of inhibiting the proliferation of the above cell lines at concentrations up to 100 μM, as judged by ^3H-thymidine incorporation assays.

[3] = Cytotoxicity, MTT assay, WI-38; type: cell-based; conditions: human, read-out: WI-38 Cytotox (IC50)
Method: as §1

[4] = test system: Melanoma ME115 cells; assay: Disruption of melanoma cell adhesion, pan-cadherin staining; type: cell-based, human; conditions: 500 μg/mL, 48 hours
Method: Melanoma ME115 cells (kindly provided by Meenhard Herlyn, Wistar Institute, Philadelphia, Pa.) were plated on glass coverslips and cultured for 24 hours in 50% keratinocyte growth medium (Clonetics, San Diego, Calif.) and 50% L15. Fresh medium containing the cyclic peptides (final concentration 500 μg/mL media) N—Ac-CHAVC-NH2 (SEQ ID NO:10) or N—Ac-CHGVC-NH2 (SEQ ID NO:11) was then added. Following 24 hours of culture in the presence of the peptides, the medium was removed and fresh medium containing the peptides was added. The cells were fixed 24 hours later with cold methanol and stored in phosphate buffered saline (PBS).
Coverslips were blocked for 1 hour in 3% ovalbumin/PBS and incubated for a further 1 hour in the presence of rabbit pan-cadherin antibody (Sigma Chemical Co., St. Louis, Mo.) diluted 1:500. Primary and secondary antibodies were diluted in PBS containing 6% normal goat serum. Following incubation in the primary antibody, coverslips were washed 3 times for 5 minutes each in PBS and incubated for 1 hour in goat anti-rabbit immunoglobulin G conjugated to fluorescein (Kiekegard and Perry, South San Francisco, Calif.) diluted 1:100. Following a further wash in PBS (3×5 minutes) coverslips were mounted in Vectashield (Vector Labs, Burlingame, Calif.) and viewed with a Zeiss infinity corrected microscope.

[5] = test system: NRK cells; assay: Disruption of normal rat kidney (NRK) cell adhesion, E-cadherin immunofluorescence; type: cell-based; conditions: 1 mg/mL, 48 hours
Method: Within another such assay, the effect of a modulating agent on normal rat kidney (NRK) cells may be evaluated. According to a representative procedure, NRK cells (ATCC #1571-CRL) may be plated at 10-20,000 cells per 35 mm tissue culture flasks containing DMEM with 10% FCS and sub-cultured periodically (Laird et al., J. Cell Biol. 131:1193-1203, 1995). Cells may be harvested and replated in 35 mm tissue culture flasks containing 1 mm coverslips and incubated until 50-65% confluent (24-36 hours). At this time, coverslips may be transferred to a 24-well plate, washed once with fresh DMEM and exposed to modulating agent at a concentration of, for example, 1 mg/mL for 24 hours. Fresh modulating agent may then be added, and the cells left for an additional 24 hours. Cells may be fixed with 100% methanol for 10 minutes and then washed three times with PBS. Coverslips may be blocked for 1 hour in 2% BSA/PBS and incubated for a further 1 hour in the presence of mouse anti-E-cadherin antibody (Transduction Labs, 1:250 dilution). Primary and secondary antibodies may be diluted in 2% BSA/PBS. Following incubation in the primary antibody, coverslips may be washed three times for 5 minutes each in PBS and incubated for 1 hour with donkey anti-mouse antibody conjugated to fluorescein (diluted 1:200). Following further washes in PBS (3×5 min) coverslips can be mounted and viewed by confocal microscopy.
NRK cells (ATCC #1571-CRL) were plated at 10-20,000 cells per 35 mm tissue culture flasks containing DMEM with 10% FCS and sub-cultured periodically (Laird et al., J. Cell Biol. 131:1193-1203, 1995). Cells were harvested and replated in 35 mm tissue culture flasks containing 1 mm coverslips and incubated until 50-65% confluent (24-36 hours). At this time, coverslips were transferred to a 24-well plate, washed once with fresh DMEM and exposed to cyclic peptide solutions (N—Ac-CHAVC-NH2 (SEQ ID NO:10) and N—Ac-CHGVC-NH2 (SEQ ID NO:11)) at a concentration of 1 mg/mL for 24 hours. Fresh peptide solutions were then added and the cells were left for an additional 24 hours. Cells were fixed with 100% methanol for 10 minutes and then washed three times with PBS. Coverslips were blocked for 1 hour in 2% BSA/PBS and incubated for a further 1 hour in the presence of mouse anti-E-cadherin antibody (Transduction Labs, Lexington, Ky.; 1:250 dilution). Primary and secondary antibodies were diluted in 2% BSA/PBS. Following incubation in the primary antibody, coverslips were washed three times for 5 minutes each in PBS and incubated for 1 hour with donkey anti-mouse antibody conjugated to fluorescein (Jackson Immuno Research, West Grove, Pa.; diluted 1:200). Following a further wash in PBS (3×5 min) coverslips were mounted and viewed by confocal microscopy.

CC[C@H](C)[C@@H]1NC(=O)[C@H](CC(=O)O)NC(=O)[C@H](C(C)C)NC(=O)[C@H](C)NC(=O)[C@H](Cc2c[nH]cn2)NC(=O)[C@H](C)NC(=O)[C@@H](NC(C)=O)CSSC[C@@H](C(N)=O)NC1=O (Ac-CAHAVDIC-NH2; disulfide 1-8)
EC50, decrease of electrical resistance across MDCK cell monolayer [1]: INACTIVE

CC(=O)N[C@H]1CSSC[C@@H](C(N)=O)NC(=O)[C@H](CC(=O)O)NC(=O)[C@H](C(C)C)NC(=O)[C@H](C)NC(=O)[C@H](Cc2c[nH]cn2)NC(=O)[C@H](C)NC1=O [N—Ac—CAHAVDC—NH2, N-Ac-Cys-Ala-His-Ala-Val-Asp-Cys-NH2] (Ac-CAHAVDC-NH2; disulfide 1-7)
effect on electrical resistance across MDCK cells (in words) [1]: complete abrogation of E-cadherin specific activity | EC50, decrease of electrical resistance across MDCK cell monolayer [1]: INACTIVE

CC(=O)N[C@H]1CSSC[C@@H](C(N)=O)NC(=O)[C@H](C(C)C)NC(=O)[C@H](C)NC(=O)[C@H](Cc2c[nH]cn2)NC1=O [N—Ac—CHAVC—NH2, N-Ac-Cys-His-Ala-Val-Cys-NH2]
IC50 [2]: > 100 µM | IC50 ([3]; WI-38 fibroblast cell line): > 100 µM | cadherin staining of ME115 cells [4]: cadherin is localized in intracellular vesicles; also recorded: absence of cell membrane staining and the appearance of bright intracellular vesicular staining | melanoma cell adhesion [4]: disrupts melanoma cell adhesion | E-cadherin expression of NRK cells (immunofluorescence) [5]: E-cadherin expression is greatly reduced; also recorded: expressed greatly reduced levels of E-cadherin | disruption of NRK cell adhesion [5]: NRK cells retract from one another; also recorded: disrupted NRK cell adhesion

CC(=O)N[C@H]1CSSC[C@@H](C(N)=O)NC(=O)[C@H](C(C)C)NC(=O)CNC(=O)[C@H](Cc2c[nH]cn2)NC1=O [N—Ac—CHGVC—NH2, reference compound]
IC50 [2]: > 100 µM | IC50 ([3]; WI-38 cells (human fibroblast cell line)): > 100 µM | cadherin staining of ME115 cells [4]: displayed cadherin staining all over the cell membrane | E-cadherin expression of NRK cells (immunofluorescence) [5]: expressed E-cadherin | disruption of NRK cell adhesion [5]: had no affect on cell adhesion
